Results taken from patent US20170224613A1, “HYDROGEL COMPOSITIONS, METHODS FOR PREPARING THE SAME AND USES THEREOF” (CHONGQING MJ MEDICAL DEVICES CO., LTD., priority 2014, published 2017).

System: healthy volunteers
Assay: Testing in healthy volunteers: warming sensation, cooling sensation, skin irritation on forearm
Assay type: in vivo, human
Details: at 11 wt % based on the total weight of the hydrogel composition
Experimental: In a pilot study to evaluate the hydrogel composition formulations, the different hydrogel prototypes (with a gauze on which the respective hydrogel composition was disposed) of Examples 2 (called gel B in Table 3) and 6 (called gel C in Table 3) and Comparative Example 1 (called gel A in Table 3) were tested on 8 healthy volunteers (M:F=5:3, ages 27-64), respectively. […] Three clinical parameters were considered including the cooling sensation, the warming sensation and irritation/erythema on the applied skin area. In this pilot study, each participant has applied the topical hydrogels (120 mm×100 mm×5 mm; 70 g) on to their forearm (one gel per forearm at a time) and scored their subjective warming and cooling sensations at 5, 10, 20, and 30 min after hydrogel application according to Table 2. The skin irritation reaction was also examined and scored by a researcher according to Table 2.

COC(=O)c1ccccc1O [Methyl salicylate, methyl salicylate]
irritation by methyl salicylate in hydrogel: showed irritation
